Measurements: EP4222493B1, “SCREENING TEST FOR CATSPER MODULATORS” (Westfälische Wilhelms-Universität Münster, priority 2020, dated 2022)

Molecular target: T1, CatSper channel (Homo sapiens, UniProt Q7RTX7+Q86XQ3+Q8NEC5+Q96P56)
T1 construct: endogenous in cells; host or cells: Sperm cells in untreated ejaculate from a healthy volunteer
Assay: CatSper modulation test: sperm motility in a test solution essentially free of free calcium, determined by light microscopy
Type: cell-based
Details: for motility: after about 10 minutes, normalized (first reading in the Ca2+-containing control = 100%)
Protocol: • Fig. 1: Time course of sperm motility in the CatSper modulation test. […] Sperm cells were exposed to a calcium-free buffer (grey curves) containing different concentrations of the exemplified CatSper inhibitor RU1968 at time t = 0 minutes up to t = 90 minutes. A control sample (black, HTF) was kept under Ca^2+-containing conditions. During a subsequent incubation at 37 °C, the motility in the sperm population was determined by light microscopy; the data was normalized (first reading in the Ca^2+-containing control = 100%).
The Ca^2+-containing solution being used in Figure 1 of the present invention corresponds to the HTF buffer (human tubular fluid) used for years in research with spermatozoa (Strünker et al. 2011, Nature 471, 382-386). The calcium-free solution is also based on this buffer. It is very likely that the test can also be carried out with buffer solutions of a different composition, as long as they are kept in the physiological range and comprise the herein mentioned ranges or values for calcium and magnesium. Table 1: Composition of the Ca2+-containing and the Ca2+-free solutions being used in the method of the present invention.
For performing a CatSper-Screening-Test, 178 µl of the calcium-free solution and 2 µl of the solvent used to prepare the test compound solution is used to produce the control solution (calcium-free solution without any test compound). A test solution is produced by adding 178 µl of the calcium-free solution and 2 µl of the test compound solution together. Optionally, another 180 µl of the calcium-containing solution (without any test compound) may further be used in another vial (see particular composition above in Tab. 1). The solutions are then stored at 4 °C and heated to 37 °C before use to warm up the solutions.
A spermatozoa (semen) sample is then obtained from a subject who is a healthy volunteer. A volume of 20 µl of the ejaculate is added to the calcium-free control, calcium-free test and calcium-containing solutions in each micro reaction tube. By low-speed vortex mixing or repeatedly inverting the micro reaction tubes, a homogeneous spermatozoa suspension is generated. Both micro reaction tubes are then incubated at 37 °C for 15 min. After incubation, the mixing step is repeated and the spermatozoa motility is determined for the conditions by counting a total number of 200 sperm cells. The fraction of motile sperm is then compared for the calcium-free control solution with and without any test compound. If a difference in the fraction of motile sperm is determined the test compound is identified as inhibitor / activator or no modulator of the CatSper activity.

Row | Structure (SMILES) | effect on CatSper ion channel activity in the CatSper-Screening-Test (10 µM, calcium-free solution, Fig. 1) | motility (3 µM inhibitor in Ca2+-free buffer, 37 °C, Fig. 2) | motility (6 µM inhibitor in Ca2+-free buffer, 37 °C, Fig. 2) [%] | motility (12 µM inhibitor in Ca2+-free buffer, 37 °C, Fig. 2) | behaviour of sperm cells from healthy volunteers in the CatSper-Screening-Test (30 µM, calcium-free solution, Fig. 1) | sperm cell motility under essentially Ca2+-free conditions (different concentrations, t = 0 minutes up to t = 90 minutes, 37 °C, Fig. 2)
1 | CC(=O)[C@H]1CC[C@H]2[C@@H]3CCC4=CC(=O)CC[C@]4(C)[C@H]3CC[C@]12C [Progesterone, progesterone] | activates CatSper ion channel activity |  |  |  |  | 
2 | C[C@@H](NCCN(C)C)[C@@H]1CC[C@@H]2[C@H]3CCc4cc(O)ccc4[C@@H]3CC[C@]21C [RU1968] |  | about 106% | ~110 | about 116% | behave in the same way as sperm from patients with CatSper dysfunction | modulates the sperm cell motility in a concentration-dependent manner
